By Km is commonly meant the concentration of substrate that gives half-maximal velocity. The IC50 is the concentration at which inhibition is half-maximal.

Experiment [1] addresses T1, PDE1A (Homo sapiens, UniProt P54750).
T1 construct: purchased Reaction Biology Corporation, Malvern, Pa
Description: Phosphodiesterase Enzyme Screening Assay, PDE1A (selectivity versus PDE9A2). The experiment is classed as biochemical. Conditions: ratio of IC50 values; value greater than 1 indicates greater selectivity for PDE9A2. An excerpt:
(§1) Compounds of the invention were screened against PDE1A, PDE1B, PDE2A, PDE3A, PDE3B, PDE4A1A, PDE4B1, PDE4D3, PDE5A1, PDE6C, PDE7A, PDE8A1, PDE9A2, PDE10A2 AND PDE11A isoforms of the phosphodiesterase enzyme to determine activity and overall selectivity through comparative analysis. The assay generally consists of testing the compounds of the invention at 10 concentrations. Where 8-methoxy-IBMX and Zaprinast were used as reference inhibitors.
(§2) The phosphodiesterase enzyme isoforms were obtained from a commercial retailer (Reaction Biology Corporation, Malvern, Pa.) for use in the instant screening assay.
(§3) The analysis was completed using the Caliper LabChip 3000 and a 12-sipper LabChip. LabChip assays are separations-based, meaning that the product and substrate are electrophoretically separated, thereby minimizing interferences and yielding the highest data quality available on any screening platform. Z′ factors for both the EZ Reader and LC3000 enzymatic assays are routinely in the 0.8 to 0.9 range. High Z′ values, few false positives, few false negatives and analytical quality reproducibility are the reasons cited for the increasing reliance on the LabChip assays.
(§4) The off-chip incubation mobility-shift phosphodiesterase assay uses a microfluidic chip to measure the conversion of a fluorescent cyclic AMP substrate to a 5′-AMP product, or a cyclic GMP substrate to a 5′-GMP product. The reaction mixture, from a microtiter plate well, is introduced through a capillary sipper onto the chip, where the fluorescent substrate and product are separated by electrophoresis and detected via laser-induced fluorescence. […] The precision of microfluidics allows researchers to detect subtle interactions between drug candidates and therapeutic targets. The technology is able to detect both strong and weak inhibitors with high accuracy, and routinely identifies drug candidates that conventional techniques miss.
(§5) Reactions were carried out in 100 mM HEPES (pH 7.5), 5 mM MgCl2, 1 mM DTT, 0.003% Brij, 4.0 μM cGMP substrate. The reaction was started by addition of cGMP or cAMP and incubated for 1 hour at R.T. The reaction was terminated by the addition of stop buffer containing 100 mM HEPES (pH 7.5), 15 mM EDTA, 0.015% Brij-35, 5% DMSO. Cyclic AMP/GMP substrate and 5′-AMP/5′-GMP product were separated by charge using electrophoretic mobility shift. Product formed was compared to control wells to determine inhibition or enhancement of enzyme activity.
(§6) One or more reference compounds, depending on phosphodiesterase isoform, selected from 8-methoxy-IBMX, Zaprinast, Trequinsin, Pentoxifyline, Rolipram, and Vinpocetine, Dipyridamole, and BRL-50481 were run alongside client samples to ensure data quality. The resulting IC50 is compared against the historical average and must be within 3-fold of this average.
(§7) Data points were averages of quadruplicate wells and error bars represented the SEM for each point. IC50s were determined using GraphPad Prism Version 5.01 and the log (inhibitor) vs. response variable slope curve fit.

The target in experiment [2] is T2, PDE1B (Homo sapiens, UniProt Q01064).
T2 construct: purchased Reaction Biology Corporation, Malvern, Pa
Put plainly: Phosphodiesterase Enzyme Screening Assay, PDE1B (selectivity versus PDE9A2). The experiment is classed as biochemical. The settings on record: ratio of IC50 values; value greater than 1 indicates greater selectivity for PDE9A2.
Source text: as §1, §2, §3, §4, §5, §6, §7

The target of experiment [3] is PDE9 (Homo sapiens, UniProt O76083). Conditions: PDE9 affinity for cGMP; cited from earlier work.
For experiment [4], the target named is T3, PDE9A2 (Homo sapiens, UniProt O76083).
T3 construct: purchased Reaction Biology Corporation, Malvern, Pa
Description: Phosphodiesterase Enzyme Screening Assay, PDE9A2 (Caliper LabChip mobility-shift). The experiment is classed as biochemical. The settings on record: 10 concentrations, 4.0 μM cGMP substrate, 1 hour at R.T.; read-out: Band (PDE9A2 IC50).
Source text: as §1, §2, §3, §4, §5, §6, §7

T3 sequence (O76083 1-533 isoform O76083-2): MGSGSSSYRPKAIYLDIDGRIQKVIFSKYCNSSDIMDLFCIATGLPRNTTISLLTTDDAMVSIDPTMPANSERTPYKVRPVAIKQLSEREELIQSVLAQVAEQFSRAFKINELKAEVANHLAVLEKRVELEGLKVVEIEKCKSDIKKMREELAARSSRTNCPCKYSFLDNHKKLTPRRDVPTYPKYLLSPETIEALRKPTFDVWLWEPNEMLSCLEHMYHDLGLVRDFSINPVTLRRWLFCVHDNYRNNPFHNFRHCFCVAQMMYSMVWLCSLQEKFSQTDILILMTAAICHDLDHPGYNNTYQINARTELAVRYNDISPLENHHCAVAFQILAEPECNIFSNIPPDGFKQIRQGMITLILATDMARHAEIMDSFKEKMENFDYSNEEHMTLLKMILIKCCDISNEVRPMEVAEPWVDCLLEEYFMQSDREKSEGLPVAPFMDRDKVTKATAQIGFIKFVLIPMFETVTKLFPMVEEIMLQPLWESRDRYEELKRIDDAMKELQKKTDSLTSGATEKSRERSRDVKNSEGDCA
T1 sequence (P54750 whole entry): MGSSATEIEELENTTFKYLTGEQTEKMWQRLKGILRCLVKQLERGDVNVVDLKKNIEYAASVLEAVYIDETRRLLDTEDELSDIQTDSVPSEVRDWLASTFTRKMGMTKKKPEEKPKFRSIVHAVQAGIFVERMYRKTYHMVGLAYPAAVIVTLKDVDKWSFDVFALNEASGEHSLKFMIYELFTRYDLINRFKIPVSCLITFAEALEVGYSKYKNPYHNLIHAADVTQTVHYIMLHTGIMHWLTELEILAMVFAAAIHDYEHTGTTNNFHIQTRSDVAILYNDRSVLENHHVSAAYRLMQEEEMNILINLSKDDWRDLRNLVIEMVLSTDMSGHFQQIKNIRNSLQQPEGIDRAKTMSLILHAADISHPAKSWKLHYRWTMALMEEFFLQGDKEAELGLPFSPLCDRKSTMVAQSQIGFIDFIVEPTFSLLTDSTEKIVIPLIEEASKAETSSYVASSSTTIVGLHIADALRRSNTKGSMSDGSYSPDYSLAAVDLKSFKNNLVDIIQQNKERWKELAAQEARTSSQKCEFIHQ
T2 sequence (Q01064 whole entry): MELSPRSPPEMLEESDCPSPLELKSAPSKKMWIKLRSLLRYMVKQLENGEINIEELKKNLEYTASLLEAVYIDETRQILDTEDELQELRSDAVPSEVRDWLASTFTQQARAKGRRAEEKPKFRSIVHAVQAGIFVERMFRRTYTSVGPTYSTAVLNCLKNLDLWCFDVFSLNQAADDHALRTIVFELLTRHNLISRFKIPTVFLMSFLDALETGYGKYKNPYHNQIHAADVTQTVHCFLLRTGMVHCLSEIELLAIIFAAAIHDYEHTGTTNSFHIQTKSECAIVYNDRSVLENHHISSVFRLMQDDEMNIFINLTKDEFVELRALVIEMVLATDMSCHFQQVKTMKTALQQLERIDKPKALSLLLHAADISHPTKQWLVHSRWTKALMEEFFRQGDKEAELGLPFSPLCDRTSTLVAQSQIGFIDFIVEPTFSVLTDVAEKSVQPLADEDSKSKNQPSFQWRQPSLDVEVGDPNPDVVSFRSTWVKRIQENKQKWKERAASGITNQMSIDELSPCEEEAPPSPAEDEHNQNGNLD
Chain of PDE9 (O76083 whole entry): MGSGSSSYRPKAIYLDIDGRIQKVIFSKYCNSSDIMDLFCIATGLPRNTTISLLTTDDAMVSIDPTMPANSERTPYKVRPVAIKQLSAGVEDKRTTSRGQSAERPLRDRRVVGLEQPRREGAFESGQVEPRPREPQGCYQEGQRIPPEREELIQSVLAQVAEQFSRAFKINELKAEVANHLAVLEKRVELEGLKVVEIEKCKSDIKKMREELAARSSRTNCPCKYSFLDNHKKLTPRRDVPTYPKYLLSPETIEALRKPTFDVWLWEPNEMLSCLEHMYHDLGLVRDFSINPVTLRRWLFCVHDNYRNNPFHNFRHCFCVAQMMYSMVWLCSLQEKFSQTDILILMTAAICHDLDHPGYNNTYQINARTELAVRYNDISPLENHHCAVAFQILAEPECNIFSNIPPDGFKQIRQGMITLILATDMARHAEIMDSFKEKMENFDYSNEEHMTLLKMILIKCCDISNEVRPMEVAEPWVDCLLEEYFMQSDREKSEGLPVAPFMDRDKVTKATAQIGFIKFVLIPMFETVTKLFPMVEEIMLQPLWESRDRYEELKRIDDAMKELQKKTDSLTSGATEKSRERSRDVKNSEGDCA

In the case of `CC1CN(Cc2ccccc2)CC1c1nn2c(C3CCCOC3)ncc2c(=O)[nH]1` (single isomer, unassigned) [2-((3,4-trans)-1-benzyl-4-methylpyrrolidin-3-yl)-7-(tetrahyd] [2-((3,4-trans)-1-benzyl-4-methylpyrrolidin-3-yl)-7-(tetrahydro-2H-pyran-3-yl)imidazo[5,1-f][1,2,4]triazin-4(3H)-one], in experiment [1], the “PDE1A selectivity (versus PDE9A2)” value was found to be 28. For the same compound, in experiment [2], the “PDE1B selectivity (versus PDE9A2)” value was found to be 38.

For the compound `Nc1nc2c(ncn2[C@@H]2O[C@@H]3COP(=O)(O)O[C@H]3[C@H]2O)c(=O)[nH]1` [cGMP, cyclic guanosine monophosphate], the Km in experiment [3] was approximately 170 nM. Turning to `C[C@@H]1CN(Cc2ccccc2)C[C@H]1c1nn2c(C3CCC(F)(F)CC3)ncc2c(=O)[nH]1` (single isomer, unassigned) [(−)-2-((3,4-trans)-1-benzyl-4-methylpyrrolidin-3-yl)-7-(4,4-difluorocyclohexyl)imidazo[5,1-f][1,2,4]triazin-4(3H)-one], the IC50 in experiment [4] is less than 1000 nM. Regarding `C[C@@H]1CN(Cc2ccc3ccccc3n2)C[C@H]1c1nn2c(C3CCOCC3)ncc2c(=O)[nH]1` (single isomer, unassigned) [(+)-2-((3,4-trans)-4-methyl-1-(quinolin-2-ylmethyl)pyrrolidi] [(+)-2-((3,4-trans)-4-methyl-1-(quinolin-2-ylmethyl)pyrrolidin-3-yl)-7-(tetrahydro-2H-pyran-4-yl)imidazo[5,1-f][1,2,4]triazin-4(3H)-one], in experiment [1], the “PDE1A selectivity (versus PDE9A2)” value is 621. The “PDE1B selectivity (versus PDE9A2)” value in experiment [2] was determined as 1400. For `C[C@@H]1CN(Cc2cn3ncccc3n2)C[C@H]1c1nn2c(C3CCOCC3)ncc2c(=O)[nH]1` (single isomer, unassigned) [(+)-2-((3,4-trans)-1-(imidazo[1,2-b]pyridazin-2-ylmethyl)-4-] [(+)-2-((3,4-trans)-1-(imidazo[1,2-b]pyridazin-2-ylmethyl)-4-methylpyrrolidin-3-yl)-7-(tetrahydro-2H-pyran-4-yl)imidazo[5,1-f][1,2,4]triazin-4(3H)-one] the same measures were 1005 and 1413.

As to `C[C@@H]1CN(Cc2ncccn2)C[C@H]1c1nn2c(C3CCOCC3)ncc2c(=O)[nH]1` (single isomer, unassigned) [(+)-2-((3,4-trans)-4-methyl-1-(pyrimidin-2-ylmethyl)pyrrolidin-3-yl)-7-(tetrahydro-2H-pyran-4-yl)imidazo[5,1-f][1,2,4]triazin-4(3H)-one], the IC50 in experiment [4] was less than 1000 nM. The same measure, in the same setting: for `C[C@@H]1CN(Cc2ccccc2)C[C@H]1c1nn2c(-c3ccoc3)ncc2c(=O)[nH]1` (single isomer, unassigned) [(+)-2-((3,4-trans)-1-benzyl-4-methylpyrrolidin-3-yl)-7-(furan-3-yl)imidazo[5,1-f][1,2,4]triazin-4(3H)-one] the value was less than 1000 nM; for `Cc1ccccc1-c1ncc2c(=O)[nH]c([C@@H]3CN(Cc4ncccn4)C[C@H]3C)nn12` (single isomer, unassigned) [(−)-2-((3,4-trans)-4-methyl-1-(pyrimidin-2-ylmethyl)pyrrolidin-3-yl)-7-(o-tolyl)imidazo[5,1-f][1,2,4]triazin-4(3H)-one], 1000 to 10000 nM. With `C[C@@H]1CN(Cc2ccc(C#N)cc2)C[C@H]1c1nn2c(C3CCOCC3)ncc2c(=O)[nH]1` (single isomer, unassigned) [(−)-4-(((3,4-trans)-3-methyl-4-(4-oxo-7-(tetrahydro-2H-pyran-4-yl)-3,4-dihydroimidazo[5,1-f][1,2,4]triazin-2-yl)pyrrolidin-1-yl)methyl)benzonitrile], the IC50 in experiment [4] is less than 1000 nM. In addition, the “PDE1A selectivity (versus PDE9A2)” value in experiment [1] was 640. In addition, the “PDE1B selectivity (versus PDE9A2)” value in experiment [2] amounted to 1445. In the case of `CC1CN([C@@H](C)c2ccccc2)CC1c1nn2c(C3CCOCC3)ncc2c(=O)[nH]1` (single isomer, unassigned; (+)), the IC50 in experiment [4] is less than 1000 nM. Still for that read-out and setting: the same measure for `C[C@@H]1CN(Cc2cccc(F)c2)C[C@H]1c1nn2c(C3CCOCC3)ncc2c(=O)[nH]1` (single isomer, unassigned) [(−)-2-((3,4-trans)-1-(3-fluorobenzyl)-4-methylpyrrolidin-3-yl)-7-(tetrahydro-2H-pyran-4-yl)imidazo[5,1-f][1,2,4]triazin-4(3H)-one]: less than 1000 nM. Same read-out and setting: for `C[C@@H]1CN(Cc2ccccc2F)C[C@H]1c1nn2c(C3CCOCC3)ncc2c(=O)[nH]1` (single isomer, unassigned) [(+)-2-((3,4-trans)-1-(2-fluorobenzyl)-4-methylpyrrolidin-3-yl)-7-(tetrahydro-2H-pyran-4-yl)imidazo[5,1-f][1,2,4]triazin-4(3H)-one] the value was less than 1000 nM; for `CCS(=O)(=O)N1CCC(c2ncc3c(=O)[nH]c([C@@H]4CN(Cc5ccccc5)C[C@H]4C)nn23)CC1` (single isomer, unassigned) [(+)-2-((3,4-trans)-1-benzyl-4-methylpyrrolidin-3-yl)-7-(1-(ethylsulfonyl)piperidin-4-yl)imidazo[5,1-f][1,2,4]triazin-4(3H)-one], less than 1000 nM; for `Cc1cc(F)ccc1-c1ncc2c(=O)[nH]c([C@@H]3CN(Cc4ncccn4)C[C@H]3C)nn12` (single isomer, unassigned) [(−)-7-(4-fluoro-2-methylphenyl)-2-((3,4-trans)-4-methyl-1-(pyrimidin-2-ylmethyl)pyrrolidin-3-yl)imidazo[5,1-f][1,2,4]triazin-4(3H)-one], less than 1000 nM. `C[C@@H]1CN(Cc2ccccc2C#N)C[C@H]1c1nn2c(C3CCOCC3)ncc2c(=O)[nH]1` (single isomer, unassigned) [(+)-2-(((3,4-trans)-3-methyl-4-(4-oxo-7-(tetrahydro-2H-pyran-4-yl)-3,4-dihydroimidazo[5,1-f][1,2,4]triazin-2-yl)pyrrolidin-1-yl)methyl)benzonitrile]: the IC50 in experiment [4] was less than 1000 nM. Besides, the “PDE1A selectivity (versus PDE9A2)” value in experiment [1] worked out at 241. Further, the “PDE1B selectivity (versus PDE9A2)” value in experiment [2] came out at 220.

With `CC1CN(Cc2ccccc2)CC1c1nn2c(C34CC5CC(CC(C5)C3)C4)ncc2c(=O)[nH]1` (single isomer, unassigned; (-)), the IC50 in experiment [4] is more than 10000 nM. As to `C[C@@H]1CN(Cc2cccc(C#N)c2)C[C@H]1c1nn2c(C3CCOCC3)ncc2c(=O)[nH]1` (single isomer, unassigned) [(+)-3-(((3,4-trans)-3-methyl-4-(4-oxo-7-(tetrahydro-2H-pyran-4-yl)-3,4-dihydroimidazo[5,1-f][1,2,4]triazin-2-yl)pyrrolidin-1-yl)methyl)benzonitrile], the IC50 in experiment [4] was less than 1000 nM. In addition, in experiment [1], the “PDE1A selectivity (versus PDE9A2)” value is 942. Further, the “PDE1B selectivity (versus PDE9A2)” value in experiment [2] is recorded as 343. Turning to `CC1CN([C@H](C)c2ccccc2)CC1c1nn2c(C3CCOCC3)ncc2c(=O)[nH]1` (single isomer, unassigned; (-)), the IC50 in experiment [4] is less than 1000 nM.

Source of the values: patent US9540380B2, “Imidazotriazinone compounds” (Ironwood Pharmaceuticals, Inc., priority 2010, dated 2017).
